From US5486514A, “Carbamate derivatives” (Glaxo SpA, priority 1992, dated 1996)

Legend:
[1] = target: CCK-A receptor; assay: CCK receptor binding, CCK-A receptor (Pancreas Assay)
Experimental: (§1) The greater affinity of the compounds of the invention for the CCK-B receptor over the CCK-A receptor has also been established using the CCK receptor binding assays described by G Dal Fornos et al., J. Pharmcol. Exp & Ther. 261, 1056-1063, 1992.
(§2) The binding affinity of the compounds of the invention for the CCK-A receptor (Pancreas Assay) and CCK-B receptor (guinea pig cortex assay) was determined using the procedure of G Dal Forno et al J. Pharmacol. Exp & Ther. 261--1056-1063. The pKi values determined with representative compounds of invention were as follows: […]

[2] = target: T1, CCK-B receptor (Cavia porcellus, UniProt H0VZC5); assay: CCK receptor binding, CCK-B receptor (guinea pig cortex assay); conditions: read-out: pKi CCK-B (converted)
T1 construct: CCK-B receptor (guinea pig cortex assay); from tissue; host or cells: guinea pig cortex
Experimental: as §1, §2

T1 sequence (H0VZC5 entry or part of it): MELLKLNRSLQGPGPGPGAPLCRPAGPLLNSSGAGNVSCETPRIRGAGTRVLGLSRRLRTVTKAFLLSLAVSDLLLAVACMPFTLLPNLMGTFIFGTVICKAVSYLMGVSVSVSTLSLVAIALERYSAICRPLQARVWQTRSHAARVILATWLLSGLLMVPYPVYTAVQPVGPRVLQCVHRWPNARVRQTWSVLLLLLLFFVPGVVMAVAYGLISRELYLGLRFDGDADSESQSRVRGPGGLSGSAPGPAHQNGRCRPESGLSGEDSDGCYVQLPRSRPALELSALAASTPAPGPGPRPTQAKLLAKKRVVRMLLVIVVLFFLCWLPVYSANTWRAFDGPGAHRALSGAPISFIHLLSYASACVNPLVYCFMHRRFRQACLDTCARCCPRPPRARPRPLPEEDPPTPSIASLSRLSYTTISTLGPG

Compound | pKi CCK-A [1] | Ki [2] [nM]
CN(C)c1cccc(OC(=O)NC2C(=O)N(CC34CC5CC(CC(C5)C3)C4)c3ccccc3N(c3ccccc3)C2=O)c1 (stereo not drawn) [Example 20] | 5.48 | 12.3
O=C(NC1C(=O)N(CCC2CCCC2)c2ccccc2N(c2ccccc2F)C1=O)Oc1ccccc1 (stereo not drawn) [Example 13] | 6.25 | 4.57
CC(C)(C)CCN1C(=O)C(NC(=O)Oc2ccccc2)C(=O)N(c2ccccc2F)c2ccccc21 (stereo not drawn) [Example 7] | 6.43 | 3.89
CC(C)C(=O)CN1C(=O)C(NC(=O)Oc2cccc(N(C)C)c2)C(=O)N(c2ccccc2)c2ccccc21 (stereo not drawn) [Example 4, 3-[3-(N,N-dimethylamino)phenyloxycarbonylamino-2,4-dioxo-1-(3-methyl-2-oxo)but-1-yl)-5-phenyl-2,3,4,5-tetrahydro-1H-1,5-benzodiazepine] | 6.25 | 3.09
CC(C)CCN1C(=O)C(NC(=O)Oc2cccc(N(C)C)c2)C(=O)N(c2ccccc2F)c2ccccc21 (racemic) [Example 8, 3-[3-(N,N-dimethylamino)phenyloxycarbonylamino]-2,4-dioxo-5-(2-fluorophenyl)-1-(3-methylbut-1-yl)-2,3,4,5-tetrahydro-1H-1,5-benzodiazepine] | 6.38 | 1.58
CC(C)CCN1C(=O)C(NC(=O)Oc2ccccc2)C(=O)N(c2ccccc2)c2ccccc21 (racemic) [Example 1, 2,4-Dioxo-1-(3-methylbut-1-yl)-5-phenyl-3-(phenyloxycarbonylamino)-2,3,4,5-tetrahydro-1H-1,5-benzodiazepine] | 5.29 | 21.4
CN(C)c1cccc(OC(=O)NC2C(=O)N(CCC(C)(C)C)c3ccccc3N(c3ccccc3F)C2=O)c1 (racemic) [Example 9, 3-[3-(N,N-dimethylamino)phenyloxycarbonylamino]-1-(3,3-dimethylbut-1-yl)-2,4-dioxo-5-(2-fluorophenyl)-2,3,4,5-tetrahydro-1H-1,5-benzodiazepine] | 6.75 | 1.02
COc1cccc(OC(=O)NC2C(=O)N(CCC(C)C)c3cc(Cl)c(Cl)cc3N(c3ccccc3)C2=O)c1 (racemic) [Example 25, 7,8-Dichloro-2,4-dioxo-3-(3-methoxyphenyloxycarbonyl)amino-1-(3-methyl-1-butyl)-5-phenyl-2,3,4,5-tetrahydro-1H-1,5-benzodiazepine] | 5.37 | 6.31
CC(C)CCN1C(=O)C(NC(=O)Oc2cccc(N(C)C)c2)C(=O)N(c2ccccc2)c2ccccc21 (stereo not drawn) [Example 3] | 6.24 | 3.16
CC(C)CCN1C(=O)C(NC(=O)Oc2cccc(N(C)C)c2)C(=O)N(c2ccccc2)c2ccc(Cl)cc21 (racemic) [Example 24, 8-Chloro-3-[3-(N,N-dimethylamino)phenyloxycarbonylamino]-2,4-dioxo-1-(3-methylbut-1-yl)-5-phenyl-2,3,4,5-tetrahydro-1H-1,5-benzodiazepine] | 5.89 | 3.39
COc1cccc(OC(=O)NC2C(=O)N(CCC(C)C)c3cc(Cl)ccc3N(c3ccccc3)C2=O)c1 (racemic) [Example 38, 8-Chloro-2,4-dioxo-3-(3-methoxyphenyloxycarbonyl)amino-1-(3-methyl-1-butyl)-5-phenyl-2,3,4,5-tetrahydro-1H-1,5-benzodiazepine] | 5.35 | 20
CC(C)CCN1C(=O)C(NC(=O)Oc2cccc(N(C)C)c2)C(=O)N(c2ccccc2)c2cc(Cl)c(Cl)cc21 (racemic) [Example 12, 7,8-Dichloro-3[3-(N,N-dimethylamino)phenyloxycarbonylamino]-2,4-dioxo-1-(3-methylbut-1-yl)-5-phenyl-2,3,4,5-tetrahydro-1H-1,5-benzodiazepine] | 5.49 | 7.41
